Where a SMILES comes first, the peptide text is derived from it. [ ]: non-standard residue; d: D form. Kyn = Nc1ccccc1C(=O)C[C@H](N)C(=O)O
Test system: CD-1 male mice
Assay: tail flick test
Type: in vivo
Details: i.c.v., 10 μg/10 μL, 15 to 120 min
Experimental: In our experiments, we used CD-1 male mice (Harlan, Italy, 25–30 g) maintained in colony, housed in cages (7 mice per cage) under standard light/dark cycle (from 7:00 a.m. to 7:00 p.m.), temperature (21 ± 1 °C) and relative humidity (60% ± 10%) for at least 1 week. Food and water were available ad libitum. The Service for Biotechnology and Animal Welfare of the Istituto Superiore di Sanità and the Italian Ministry of Health authorized the experimental protocol according to Legislative Decree 26/14.
DMSO was purchased from Merck (Rome, Italy). Peptides solutions were freshly prepared using saline containing 0.9% NaCl and DMSO in the ratio DMSO/saline 1:5 v/v every experimental day. […]
The tail flick latency was obtained using a commercial unit (Ugo Basile, Gemonio, Italy), consisting of an infrared radiant light source (100 W, 15 V bulb) focused onto a photocell utilizing an aluminum parabolic mirror. […] Radiant heat was focused 3–4 cm from the tip of the tail, and the latency (s) of the tail withdrawal to the thermal stimulus was recorded. […] The baseline latency was calculated as mean of three readings recorded before testing at intervals of 15 min and the time course of latency determined at 15, 30, 45, 60, 90, and 120 min after treatment. […]
Experimental data were expressed as mean ± s.e.m. […]

Structure (SMILES): C[C@@H](NC(=O)[C@@H](N)Cc1ccc(O)cc1)C(=O)NCC(=O)N[C@@H](Cc1ccccc1)C(=O)N[C@@H](CC(=O)c1ccccc1N)C(N)=O [Peptide K6] (H-Y[dA]GF[Kyn]-NH2)
- effect on time of response to thermal nociceptive stimuli (tail flick): greatly increase the time of response to thermal nociceptive stimuli

Source: paper PMC7072329, “Discovery of Kynurenines Containing Oligopeptides as Potent Opioid Receptor Agonists” (Biomolecules, 2020)
